Reference: patent publication US9493446B2, “Orexin receptor antagonists which are [ortho bi-(hetero-)aryl]-[2-(meta bi-(hetero-)aryl)-pyrrolidin-1-yl]-methanone derivatives” (Actelion Pharmaceuticals Ltd, priority 2012, dated 2016)
pIC50: −log10 of the molar value. Where two headings read alike, the source gives them in different places.

Tests used:
orexin-1 [1] = biological target: T1, orexin-1 (Homo sapiens (Human), UniProt O43613); details: cited from earlier work
[2] = test system: amyloid precursor protein transgenic mice; details: after acute sleep restriction, APP transgenic mice; cited from earlier work
mouse = details: administered chronically; cited from earlier work
rat [3] = details: cited from earlier work
fasted hungry rats = fasted hungry rats exposed to food odors; cited from earlier work
rat [4] = details: cited from earlier work; remark: listed apart in the source
humans = details: primary insomnia; cited from earlier work
rat [5] = details: cited from earlier work; remark: listed apart in the source
rats = details: cited from earlier work
Wistar rats = assay: Sleep effects: EEG, EMG and behavioural indices of alertness by radiotelemetry; format: in vivo; details: effects analyzed over 12 hours, compared to vehicle controls
Protocol: Sleep Effects: EEG, EMG and Behavioural Indices of Alertness Recorded by Radiotelemetry In Vivo in Wistar Rats.
Electroencephalography (EEG) and Electromyography (EMG) signals were measured by telemetry using TL11M2-F20-EET miniature radiotelemetric implants (Data Science Int.) with two pairs of differential leads.
Surgical implantation was performed under general anesthesia with Ketamin/Xylazin, for cranial placement of one differential pair of EEG electrodes and one pair of EMG leads inserted in either side of the muscles of the neck. After surgery, rats recovered in a thermoregulated chamber and received analgesic treatment with subcutaneous buprenorphine twice a day for 2 d. They were then housed individually and allowed to recover for a minimum of 2 weeks. Thereafter, rats—in their home cage—were placed in a ventilated sound-attenuating box, on a 12-h light/12-h dark cycle, for acclimatization before continuous EEG/EMG recordings started. The telemetric technology that we used in this study allows accurate and stress-free acquisition of biosignals in rats placed in their familiar home cage environment, with no recording leads restricting their movements. Variables analyzed included four different stages of vigilance and sleep, spontaneous activity in the home cage and body temperature. Sleep and wake stages were evaluated using a rodent scoring software (Somnologica Science) directly processing electrical biosignals on 10 s contiguous epochs. The scoring is based on frequency estimation for EEG and amplitude discrimination for EMG and locomotor activity. Using these measurements, the software determines the probability that all components within each epoch best represent active waking (AW), quiet waking (QW), non-REM-sleep (NREM) or REM-sleep (REM). The percentage of total time spent in AW, QW, NREM- and REM-sleep was calculated per 12 h light or dark period. The latency to the onset of the first significant NREM- and REM-sleep episodes and the number and duration of those episodes were also calculated. AW, QW, NREM- and REM-sleep, home cage activity and body temperature were measured at baseline for at least one total circadian cycle (12 h-night, 12 h-day) before a test compound was administered. […] All variables were subsequently recorded for 12 h following administration of the orexin receptor antagonist.

human orexin-2 receptor = human orexin-2 receptor (Homo sapiens (Human), UniProt O43614); assay: Intracellular calcium measurement (FLIPR), CHO cells expressing human orexin-2 receptor, 3 nM orexin-A; format: cell-based; details: CHO cells expressing human orexin-2 receptor, FLIPR, 3 nM orexin-A; geometric mean if determined several times; read-out: IC50 OX2
Outline: (§1)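 CHO cells stably expressing each receptor were loaded with 3 μM fluo-4 AM plus 5 mM probenecid for 50 min at 37 °C, then equilibrated 30 min at rt.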

orexin-1 [6] = biological target: T1, orexin-1; assay: Intracellular calcium measurement (FLIPR), CHO cells expressing human orexin-1 receptor, 3 nM orexin-A; format: cell-based; details: CHO cells expressing human orexin-1 receptor, FLIPR, 3 nM orexin-A; geometric mean if determined several times; read-out: IC50 OX1
Outline: as §1

[7] = Measurement of brain and systemic concentration after oral administration; format: in vivo; details: rat, 3 h after oral administration (100 mg/kg), n=3, male wistar rats;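 as to concentration in plasma [P]: unit ng/mL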
Protocol: Measurement of Brain and Systemic Concentration after Oral Administration:
In order to assess brain penetration, the concentration of the compound is measured in plasma ([P]), and brain ([B]), sampled 3 h (or at different time points) following oral administration (e.g. 100 mg/kg) to male wistar rats. The compounds are formulated e.g. in 100% PEG 400. Samples are collected in the same animal at the same time point (+/−5 min). Blood is sampled from the vena cava caudalis into containers with EDTA as anticoagulant and centrifuged to yield plasma. Brain is sampled after cardiac perfusion of 10 mL NaCl 0.9% and homogenized into one volume of cold phosphate buffer (pH 7.4). All samples are extracted with MeOH and analyzed by LC-MS/MS. Concentrations are determined with the help of calibration curves.

rodents [8] = details: cited from earlier work
rodents [9] = details: conditioned reinforcer; cited from earlier work
[10] = brain, read-out: concentration in brain [B]
[11] = plasma, read-out: concentration in plasma [P]

Sequence of human orexin-2 receptor (O43614 whole entry): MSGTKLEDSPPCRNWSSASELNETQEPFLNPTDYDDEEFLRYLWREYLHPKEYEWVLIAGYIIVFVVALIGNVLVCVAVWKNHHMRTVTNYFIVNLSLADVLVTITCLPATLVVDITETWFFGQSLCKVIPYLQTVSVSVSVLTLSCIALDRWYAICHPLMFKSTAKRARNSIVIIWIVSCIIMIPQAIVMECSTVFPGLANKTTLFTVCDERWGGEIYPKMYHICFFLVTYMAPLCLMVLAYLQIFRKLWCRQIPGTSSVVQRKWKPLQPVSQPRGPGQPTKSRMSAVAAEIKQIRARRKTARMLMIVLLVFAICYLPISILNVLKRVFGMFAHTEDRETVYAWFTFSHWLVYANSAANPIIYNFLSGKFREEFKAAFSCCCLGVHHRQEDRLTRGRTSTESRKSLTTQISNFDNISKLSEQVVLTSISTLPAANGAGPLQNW
T1 sequence (O43613 whole entry): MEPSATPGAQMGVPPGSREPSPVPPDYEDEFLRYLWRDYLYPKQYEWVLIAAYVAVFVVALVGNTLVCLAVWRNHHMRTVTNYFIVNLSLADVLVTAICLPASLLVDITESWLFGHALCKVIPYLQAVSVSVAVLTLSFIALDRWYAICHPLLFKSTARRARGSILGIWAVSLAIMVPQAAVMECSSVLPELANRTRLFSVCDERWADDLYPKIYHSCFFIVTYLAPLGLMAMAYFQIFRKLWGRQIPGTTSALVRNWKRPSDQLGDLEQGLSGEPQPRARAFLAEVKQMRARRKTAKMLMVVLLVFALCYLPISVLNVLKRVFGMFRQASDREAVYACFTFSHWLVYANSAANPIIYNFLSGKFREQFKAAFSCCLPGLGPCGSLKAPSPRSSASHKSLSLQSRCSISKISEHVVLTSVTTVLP

In the case of `Cc1nc(C(=O)N2CCC[C@H]2Cc2nnc(-c3ccccc3)o2)c(-c2ccccc2F)s1` [1-(5-(2-fluoro-phenyl)-2-methyl-thiazol-4-yl)-1-[(S)-2-(5-phenyl-[1,3,4]oxadiazol-2-ylmethyl)-pyrrolidin-1-yl)-methanone], the orexin receptor selectivity (orexin-1 [1]) is given as “highly orexin-1 selective”.
In the case of `CNC(=O)[C@@H](c1ccccc1)N1CCc2cc(OC)c(OC)cc2[C@@H]1CCc1ccc(C(F)(F)F)cc1` [(2R)-2-{(1S)-6,7-dimethoxy-1-[2-(4-trifluoromethyl-phenyl)-ethyl]-3,4-dihydro-1H-isoquinolin-2-yl}-N-methyl-2-phenyl-acetamide], the “brain levels of amyloid-beta and plaque deposition” value [2] is listed as “decreased brain levels of amyloid-beta (Aβ) as well as Aβ plaque deposition”, the antidepressant-like activity (mouse) is listed as “induce antidepressant-like activity” and the “alertness (active wake and locomotion)” value (rat [3]) is listed as “decrease alertness”. For the same compound, the “time spent in REM and NREM sleep” value (rat [3]) was “dose-dependently increase the time spent in both REM and NREM sleep”, the “natural activation induced by orexin A” value (fasted hungry rats) was “attenuate the natural activation induced by orexin A” and the “activity in fear-potentiated startle paradigm” value (rat [4]) was “active”. For the same compound, the clinical efficacy (humans) was “showed clinical efficacy”, the “pharmacological activity in nicotine self-administration” value (rat [5]) was “displayed pharmacological activity” and the “cardiovascular responses to conditioned fear and novelty exposure” value (rats) was “attenuated cardiovascular responses to conditioned fear and novelty exposure”.
In the case of `Cc1cc(C(=O)N2CCC[C@H]2c2nc(-c3cccc(Cl)c3C)no2)c(-n2nccn2)cc1C` [Example 95, {(S)-2-[3-(3-Chloro-2-methyl-phenyl)-[1,2,4]oxadiazol-5-yl]-pyrrolidin-1-yl}-(4,5-dimethyl-2-[1,2,3]triazol-2-yl-phenyl)-methanone], the “effect on NREM sleep” value (Wistar rats; 100 mg/kg po) was “+11.2%”, the “effect on REM sleep” value (Wistar rats; 100 mg/kg po) was “+7.8%” and the “effect on active wake” value (Wistar rats; 100 mg/kg po) was −7.3%. The “effect on home cage activity” value (Wistar rats; 100 mg/kg po) was −20.3%, the pIC50 (human orexin-2 receptor) was 8.52 and the pIC50 (orexin-1 [6]) was 7.89. For the same compound, the concentration at 3 h [7, 10] was 483 ng/g and the concentration at 3 h [7, 11] was 309 ng/mL.
With `COc1cc(C(=O)N2CCC[C@H]2c2nc(-c3ccccc3OC(F)(F)F)no2)c(-n2nccn2)cc1C` [Example 154, (5-Methoxy-4-methyl-2-[1,2,3]triazol-2-yl-phenyl)-{(S)-2-[3-(2-trifluoromethoxy-phenyl)-[1,2,4]oxadiazol-5-yl]-pyrrolidin-1-yl}-methanone] the “effect on NREM sleep” value (Wistar rats; 100 mg/kg po) was “+7.3%”, the “effect on REM sleep” value (Wistar rats; 100 mg/kg po) was “+0.9%” and the “effect on active wake” value (Wistar rats; 100 mg/kg po) was −13.9%. For the same compound, the “effect on home cage activity” value (Wistar rats; 100 mg/kg po) was −26.8%, the pIC50 (human orexin-2 receptor) was 8.70 and the pIC50 (orexin-1 [6]) was 7.52. It also gave a concentration at 3 h [7, 10] of 3250 ng/g and a concentration at 3 h [7, 11] of 2240 ng/mL.
For `COc1cc(C(=O)N2CCC[C@H]2c2noc(-c3ccccc3OC(F)(F)F)n2)c(-n2nccn2)cc1C` [Example 308, (5-Methoxy-4-methyl-2-[1,2,3]triazol-2-yl-phenyl)-{(S)-2-[5-(2-trifluoromethoxy-phenyl)-[1,2,4]oxadiazol-3-yl]-pyrrolidin-1-yl}-methanone], the “effect on NREM sleep” value (Wistar rats; 100 mg/kg po) was “+14.3%”, the “effect on REM sleep” value (Wistar rats; 100 mg/kg po) was “+35.2%” and the “effect on active wake” value (Wistar rats; 100 mg/kg po) was −24.0%. For the same compound, the “effect on home cage activity” value (Wistar rats; 100 mg/kg po) was −41.4%, the pIC50 (human orexin-2 receptor) was 8.40 and the pIC50 (orexin-1 [6]) was 7.66. For the same compound, the concentration at 3 h [7, 10] was 1580 ng/g and the concentration at 3 h [7, 11] was 1760 ng/mL.
For `Cc1ccc(C(=O)N2CCC[C@H]2c2nnc(-c3ccccc3OC(F)(F)F)[nH]2)c(-n2nccn2)c1` [Example 502, (4-Methyl-2-[1,2,3]triazol-2-yl-phenyl)-{(S)-2-[5-(2-trifluoromethoxy-phenyl)-4H-[1,2,4]triazol-3-yl]-pyrrolidin-1-yl}-methanone], the “effect on NREM sleep” value (Wistar rats; 100 mg/kg po) was “+24.2%”, the “effect on REM sleep” value (Wistar rats; 100 mg/kg po) was “+47.0%” and the “effect on active wake” value (Wistar rats; 100 mg/kg po) was −19.4%. The “effect on home cage activity” value (Wistar rats; 100 mg/kg po) was −47.1%, the concentration at 3 h [7, 10] was 1640 ng/g and the concentration at 3 h [7, 11] was 2770 ng/mL.
For `C[C@@]1(c2nnc(-c3ccccc3OC(F)(F)F)[nH]2)CCCN1C(=O)c1ccc(Cl)cc1-n1nccn1` [Example 544, (4-Chloro-2-[1,2,3]triazol-2-yl-phenyl)-{(S)-2-methyl-2-[5-(2-trifluoromethoxy-phenyl)-4H-[1,2,4]triazol-3-yl]-pyrrolidin-1-yl}-methanone], the “effect on NREM sleep” value (Wistar rats; 30 mg/kg po) was “+19.4%”, the “effect on REM sleep” value (Wistar rats; 30 mg/kg po) was “+5.6%” and the “effect on active wake” value (Wistar rats; 30 mg/kg po) was −9.6%. The “effect on home cage activity” value (Wistar rats; 30 mg/kg po) was −18.5%, the pIC50 (human orexin-2 receptor) was 8.22 and the pIC50 (orexin-1 [6]) was 8.30. It also gave a concentration at 3 h [7, 10] of 1120 ng/g and a concentration at 3 h [7, 11] of 1070 ng/mL.
For `Cn1c(SCC(=O)N2CCC[C@H]2C(=O)Nc2ccccc2-c2ccccc2)nc2ccccc21` [N-Biphenyl-2-yl-1-{[(1-methyl-1H-benzimidazol-2-yl)sulfanyl]acetyl}-L-prolinamide], the “behavioral and molecular changes induced by repeated amphetamine” value (rodents [8]) is listed as “reduced behavioral (locomotor sensitization) and molecular (transcriptional responses) changes” and the nicotine-reinstatement (rodents [9]) is listed as “inhibited nicotine-reinstatement for a conditioned reinforcer”.
